The term IC50 denotes the concentration that gives 50% inhibition.

Assay [1] deals with T1, full-length beta-Catenin (Uniprot ID P35222) (Homo sapiens, UniProt P35222).
T1 construct: 10 nM full-length beta-Catenin (Uniprot ID P35222)
T1 sequence (P35222 1-781): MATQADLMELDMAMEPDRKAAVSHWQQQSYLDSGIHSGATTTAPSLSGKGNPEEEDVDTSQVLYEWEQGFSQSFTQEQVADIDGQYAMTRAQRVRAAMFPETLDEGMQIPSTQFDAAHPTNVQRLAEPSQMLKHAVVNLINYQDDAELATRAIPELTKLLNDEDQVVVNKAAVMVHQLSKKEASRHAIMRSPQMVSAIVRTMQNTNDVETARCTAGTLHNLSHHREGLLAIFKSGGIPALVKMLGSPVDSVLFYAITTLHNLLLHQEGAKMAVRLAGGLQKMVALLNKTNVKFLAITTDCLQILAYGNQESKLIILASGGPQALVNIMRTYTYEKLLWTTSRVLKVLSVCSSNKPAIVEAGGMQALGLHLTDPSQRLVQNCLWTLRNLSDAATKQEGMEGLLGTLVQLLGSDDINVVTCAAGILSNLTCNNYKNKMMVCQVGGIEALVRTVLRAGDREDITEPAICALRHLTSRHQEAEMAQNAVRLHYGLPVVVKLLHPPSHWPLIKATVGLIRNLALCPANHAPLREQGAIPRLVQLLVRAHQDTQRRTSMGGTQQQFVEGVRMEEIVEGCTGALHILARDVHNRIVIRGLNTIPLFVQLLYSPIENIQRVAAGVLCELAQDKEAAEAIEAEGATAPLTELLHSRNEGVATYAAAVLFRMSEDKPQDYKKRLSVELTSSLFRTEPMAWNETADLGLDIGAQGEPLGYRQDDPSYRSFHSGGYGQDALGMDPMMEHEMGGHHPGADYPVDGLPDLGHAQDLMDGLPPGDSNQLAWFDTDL
The assay is described as follows: Fluorescence polarization IC50 (beta-catenin / 5FAM-TCF4 10-53 competition). The format is binding. The note with it: fluorescence polarization; read-out: beta-Catenin FP IC50.

Assay [2] addresses T2, beta-catenin/TCF4 engagement (Homo sapiens, UniProt P35222).
T2 construct: expressed in transfected cells; host or cells: HEK293
T2 sequence (P35222 1-781): T1 sequence (P35222 1-781)
Put plainly: Nano-BRET target engagement assay (B-cat-Halo & TCF4-Luc in HEK293 cells). The note with it: absolute IC50; read-out: NanoBRET Abs IC50. It is filed as cell-based. A general note: BRET reads energy transfer from a luciferase to a nearby fluorophore.

Regarding `CC(=O)N1CCC[C@]12CC=CCCCC1(CCCC=CCCCOC(=O)N3CC[C@@](C(=O)N[C@@H](Cc4ccccc4)C(=O)N[C@@H](Cc4csc5ccccc45)C(=O)N[C@@H](CCC(N)=O)C(N)=O)(C3)NC(=O)[C@H](CC(C)C)NC(=O)[C@H](Cc3ccccc3)NC(=O)[C@H](C)NC(=O)[C@H](CCCCNC(C)C)NC(=O)[C@H](CN(CC(=O)O)CC(F)(F)F)NC(=O)[C@H](CC(=O)O)NC1=O)NC(=O)[C@H](CC1CCCCC1)NC(=O)[C@H](CC(N)=O)NC2=O` (stereo partly drawn) [I-2341, Ac-PL3-Asn-Cha-B5-Asp-TfeGA-iPrLys-Ala-Phe-Leu-PyrS2-Phe-BztA-Gln-NH2], the IC50 in assay [1] was 42 nM; in assay [2] it was > 20000 nM.
As to `CC(=O)N1CCC[C@]12CC=CCCCC1(CCCC=CCCCOC(=O)N3CC[C@@](C(=O)N[C@@H](Cc4ccccc4)C(=O)N[C@@H](Cc4csc5ccccc45)C(=O)N[C@@H](CCCCN)C(N)=O)(C3)NC(=O)[C@H](CC(C)C)NC(=O)[C@H](Cc3ccccc3)NC(=O)[C@H](C)NC(=O)[C@H](CCCCNC(C)C)NC(=O)[C@H](CCC(N)=O)NC(=O)[C@H](CC(=O)O)NC1=O)NC(=O)[C@H](CC1CCCCC1)NC(=O)[C@H](CC(N)=O)NC2=O` (stereo partly drawn) [I-2350, Ac-PL3-Asn-Cha-B5-Asp-Gln-iPrLys-Ala-Phe-Leu-PyrS2-Phe-BztA-Lys-NH2], the IC50 in assay [1] was 63 nM; in assay [2], > 20000 nM.
As to `CC(=O)N1CCC[C@]12CC=CCCCC1(CCCC=CCCCOC(=O)N3CC[C@@](C(=O)N[C@@H](Cc4ccccc4)C(=O)N[C@@H](Cc4csc5ccccc45)C(=O)N[C@@H](CCC(N)=O)C(N)=O)(C3)NC(=O)[C@H](CC(C)C)NC(=O)[C@H](Cc3ccccc3)NC(=O)[C@H](C)NC(=O)[C@H](CCO)NC(=O)[C@H](CCC(N)=O)NC(=O)[C@H](CC(=O)O)NC1=O)NC(=O)[C@H](CC1CCCCC1)NC(=O)[C@H](CC(N)=O)NC2=O` (stereo partly drawn) [I-2354, Ac-PL3-Asn-Cha-B5-Asp-Gln-Hse-Ala-Phe-Leu-PyrS2-Phe-BztA-Gln-NH2], the IC50 is 100 nM in assay [1] and > 20000 nM in assay [2].
Turning to `CCOC(=O)C[C@@H]1NC(=O)C2(CCCC=CCCCOC(=O)N3CC[C@@](C(=O)N[C@@H](Cc4ccsc4)C(=O)N[C@@H](Cc4csc5ccccc45)C(=O)N[C@@H](CCC(N)=O)C(N)=O)(C3)NC(=O)[C@H](CC(C)C)NC(=O)[C@H](Cc3ccccc3)NC(=O)[C@H](C)NC(=O)[C@H](C)NC(=O)[C@H](CC(=O)O)NC1=O)CCCC=CC[C@]1(CCCN1C(C)=O)C(=O)N[C@@H](CC(=O)O)C(=O)N[C@@H](CC(C)(C)C)C(=O)N2` (stereo partly drawn) [I-2357, Ac-PL3-Asp-Npg-B5-[Et]AspE-Asp-Ala-Ala-Phe-Leu-PyrS2-3Thi-BztA-Gln-NH2], the figures for the IC50 in assay [1] and in assay [2] were 6990 nM and > 20000 nM, respectively.
Take `COC(=O)C[C@@H]1NC(=O)[C@]2(CC=CCCCC3(CCCC=CCCCOC(=O)N4CC[C@@](C(=O)N[C@@H](Cc5ccsc5)C(=O)N[C@@H](Cc5csc6ccccc56)C(=O)N[C@@H](CCC(N)=O)C(N)=O)(C4)NC(=O)[C@H](CC(C)C)NC(=O)[C@H](Cc4ccccc4)NC(=O)[C@H](C)NC(=O)[C@H](C)NC(=O)[C@H](CC(=O)O)NC(=O)[C@H](CC(=O)O)NC3=O)NC(=O)[C@H](CC(C)(C)C)NC1=O)CCCN2C(C)=O` (stereo partly drawn) [I-2359, Ac-PL3-[Me]AspE-Npg-B5-Asp-Asp-Ala-Ala-Phe-Leu-PyrS2-3Thi-BztA-Gln-NH2]: the IC50 in assay [1] was 424 nM; in assay [2], > 20000 nM.
`COC(=O)C[C@@H]1NC(=O)C2(CCCC=CCCCOC(=O)N3CC[C@@](C(=O)N[C@@H](Cc4ccsc4)C(=O)N[C@@H](Cc4csc5ccccc45)C(=O)N[C@@H](CCC(N)=O)C(N)=O)(C3)NC(=O)[C@H](CC(C)C)NC(=O)[C@H](Cc3ccccc3)NC(=O)[C@H](C)NC(=O)[C@H](C)NC(=O)[C@H](CC(=O)O)NC1=O)CCCC=CC[C@]1(CCCN1C(C)=O)C(=O)N[C@@H](CC(=O)O)C(=O)N[C@@H](CC(C)(C)C)C(=O)N2` (stereo partly drawn) [I-2360, Ac-PL3-Asp-Npg-B5-[Me]AspE-Asp-Ala-Ala-Phe-Leu-PyrS2-3Thi-BztA-Gln-NH2]: the IC50 in assay [1] is 2440 nM; in assay [2], > 20000 nM.
In the same order, the values of `COC(=O)C[C@@H]1NC(=O)[C@H](CC(=O)O)NC(=O)C2(CCCC=CCCCOC(=O)N3CC[C@@](C(=O)N[C@@H](Cc4ccsc4)C(=O)N[C@@H](Cc4csc5ccccc45)C(=O)N[C@@H](CCC(N)=O)C(N)=O)(C3)NC(=O)[C@H](CC(C)C)NC(=O)[C@H](Cc3ccccc3)NC(=O)[C@H](C)NC(=O)[C@H](C)NC1=O)CCCC=CC[C@]1(CCCN1C(C)=O)C(=O)N[C@@H](CC(=O)O)C(=O)N[C@@H](CC(C)(C)C)C(=O)N2` (stereo partly drawn) [I-2361, Ac-PL3-Asp-Npg-B5-Asp-[Me]AspE-Ala-Ala-Phe-Leu-PyrS2-3Thi-BztA-Gln-NH2] are 349 nM and 36700 nM.
In the same order, the values of `CC(=O)N1CCC[C@]12CC=CCCCC1(CCCC=CCCCOC(=O)N3CC[C@@](C(=O)N[C@@H](Cc4ccccc4C(F)(F)F)C(=O)N[C@@H](Cc4csc5ccccc45)C(=O)N[C@@H](C)C(N)=O)(C3)NC(=O)[C@H](CC(C)C)NC(=O)[C@H](Cc3ccccc3)NC(=O)[C@H](C)NC(=O)[C@H](CCC(N)=O)NC(=O)[C@H](Cn3cc(CCC(=O)O)nn3)NC(=O)[C@H](CC(=O)O)NC1=O)NC(=O)[C@H](CC(C)(C)C)NC(=O)[C@H](CC(=O)O)NC2=O` (stereo partly drawn) [I-2367, Ac-PL3-Asp-Npg-B5-Asp-[CH2CH2CO2H]TriAzDap-Gln-Ala-Phe-Leu-PyrS2-2F3MeF-BztA-Ala-NH2] are 7 nM and 6200 nM.
Take `CC(=O)N1CCC[C@]12CC=CCCCC1(CCCC=CCCCOC(=O)N3CC[C@@](C(=O)N[C@@H](Cc4ccccc4C(F)(F)F)C(=O)N[C@@H](Cc4csc5ccccc45)C(=O)N[C@@H](C)C(N)=O)(C3)NC(=O)[C@H](CC(C)C)NC(=O)[C@H](Cc3ccccc3)NC(=O)[C@H](C)NC(=O)[C@H](CCC(N)=O)NC(=O)[C@H](Cn3cc(CC(C)(C)C(=O)O)nn3)NC(=O)[C@H](CC(=O)O)NC1=O)NC(=O)[C@H](CC(C)(C)C)NC(=O)[C@H](CC(=O)O)NC2=O` (stereo partly drawn) [I-2368, Ac-PL3-Asp-Npg-B5-Asp-[CH2CMe2CO2H]TriAzDap-Gln-Ala-Phe-Leu-PyrS2-2F3MeF-BztA-Ala-NH2]: the IC50 in assay [1] amounted to 5 nM; in assay [2] it was 5000 nM.
As for `CC(=O)N1CCC[C@]12CC=CCCCC1(CCCC=CCCCOC(=O)N3CC[C@@](C(=O)N[C@@H](Cc4ccccc4C(F)(F)F)C(=O)N[C@@H](Cc4csc5ccccc45)C(=O)N[C@@H](C)C(N)=O)(C3)NC(=O)[C@H](CC(C)C)NC(=O)[C@H](Cc3ccccc3)NC(=O)[C@H](C)NC(=O)[C@H](CCC(N)=O)NC(=O)[C@H](Cn3cc(C(C)(C)C(=O)O)nn3)NC(=O)[C@H](CC(=O)O)NC1=O)NC(=O)[C@H](CC(C)(C)C)NC(=O)[C@H](CC(=O)O)NC2=O` (stereo partly drawn) [I-2369, Ac-PL3-Asp-Npg-B5-Asp-[CMe2CO2H]TriAzDap-Gln-Ala-Phe-Leu-PyrS2-2F3MeF-BztA-Ala-NH2], the IC50 in assay [1] was found to be 14 nM; in assay [2], 9500 nM.
In the same order, the values of `CC(=O)N1CCC[C@]12CC=CCCCC1(CCCC=CCCCOC(=O)N3CC[C@@](C(=O)N[C@@H](Cc4ccccc4C(F)(F)F)C(=O)N[C@@H](Cc4csc5ccccc45)C(=O)N[C@@H](CO)C(N)=O)(C3)NC(=O)[C@H](CC(C)C)NC(=O)[C@H](Cc3ccccc3)NC(=O)[C@H](C)NC(=O)[C@H](C)NC(=O)[C@H](Cn3cc(CCC(=O)O)nn3)NC(=O)[C@H](CC(=O)O)NC1=O)NC(=O)[C@H](CC(C)(C)C)NC(=O)[C@H](CC(=O)O)NC2=O` (stereo partly drawn) [I-2371, Ac-PL3-Asp-Npg-B5-Asp-[CH2CH2CO2H]TriAzDap-Ala-Ala-Phe-Leu-PyrS2-2F3MeF-BztA-Ser-NH2] are 5 nM and 5000 nM.

These data come from patent US20240116985A1, “STAPLED PEPTIDES AND METHODS THEREOF” (priority 2020, published 2024).
